PMC10510102, “Efficient Ligand Discovery Using Sulfur(VI) Fluoride Reactive Fragments” (ACS Chemical Biology, 2023)

Legend:
BCL6 = biological target: T1, BCL6 (Homo sapiens, UniProt P41182, C67R/C84N/C8Q); assay: Identification of site(s) of covalent modification by tandem MS; details: 2 μM BCL6, 100 μM SF, 4 °C, 24 h; trypsin digest LC-MS/MS
T1 construct: hBCL6-Flag-6H-Avi 3Cmut (5–129) produced as part of the GSK/GenScript collaboration; Flag (C); 6H (His6) (C); Avi (C)
Protocol: The top hits from the SF screen with BCL6 represented two distinct chemotypes: meta-substituted benzamides (2f and 2g) and azetidine aryl ethers (2h and 2i). These were resynthesized and purified for follow-up studies. […] Tyr57 has previously been targeted by a BCL6 inhibitor (14, TMX-2164); however, the targeting of His115 is a novel modification; these residues are located on opposite sides of the binding site of previously reported BCL6 inhibitors (11–14) (see Figure 5b).
7. BCL6 – site of binding studies and iterative screen
7.1. Identification of the site(s) of covalent modification by tandem MS (BCL6)
The (resynthesized and purified) SF hits (2f–i) were plated into a Greiner 384 PP F-bottom plate from a 10 mM source in DMSO. Purified BCL6 diluted from original stock into a buffer made up of HEPES (pH 7.5, 25 mM) and NaCl (50 mM) in distilled MS-grade water (50 µL per well) was subsequently added across the plate. Final concentrations: 2 µM protein; 100 µM SF. The plate was sealed, centrifuged (1 min, 1000 rpm), incubated at 4 °C for 24 h, and 15 µL aliquots were subsequently removed and analyzed by intact protein LC-MS.
The remaining samples (1 μg) were separated by SDS-PAGE to remove excess unbound compound. Gels were stained with colloidal Comassie InstantBlue and bands corresponding to BCL6 were excised, reduced with 10 mM TCEP (65 °C, 30 mins), and alkylated with 10 mM iodoacetamide (r.t., 30 mins, dark). Samples were digested with trypsin (Promega) 1:10 E:S (37 °C, 16 h) in 100 mM ammonium bicarbonate. After removal of the supernatant, peptides were extracted using acetonitrile. Combined supernatants were concentrated in a SpeedVac centrifuge and acidified (0.1% formic acid, 0.05% trifluoroacetic acid) prior to injection into the LC-MS/MS system.
Digested samples were injected on an Easy-nLC 1200 UHPLC system (Thermo Scientific). The nanoLC was interfaced to an Orbitrap Fusion Lumos Mass Spectrometer (Thermo Scientific). Tryptic peptides were loaded on a 2 cm × 75 µm Acclaim PepMap 100 C18 trapping column (Thermo Scientific) and separated on a 25 cm × 75 μm, 2 µm particles, PepMap C18, 2 μm particle column (Thermo Scientific) using a 50 min gradient of 2–38% acetonitrile, 0.2% formic acid and a flow of 300 nL/min. LC-MS/MS based peptide sequencing was performed by data dependent analysis (DDA). Full MS 350–1600 Da at 120,000 resolution, MS AGC target 1e6, MS Maximum IT 50 ms, followed by MS/MS using a 3 sec. cycle time, stepped collision energy mode at 25, 29 and 32 CE%, Isolation window 1.6 m/z, fixed first mass 145 m/z, 15,000 orbitrap resolution, MS/MS AGC target 1e5 and MS/MS Maximum IT 200 ms. Alternatively, samples were analyzed by Parallel Reaction Monitoring (PRM) targeting precursor ions relative to the modified peptides. […]

BCL6 BTB/POZ domain = BCL6 BTB/POZ domain (Homo sapiens, UniProt P41182, C67R/C84N/C8Q); assay: Displacement study with GSK137, intact protein LC-MS; type: binding; design: hBCL6-Flag-6H-Avi 3Cmut (5–129) produced as part of the GSK/GenScript collaboration; Flag (C); 6H (His6) (C); Avi (C); details: for Modification (GSK137 treatment) / Modification (DMSO-d6 treatment): 1 μM protein, 50 μM SF, 20 °C, 24 h, average of duplicate; for Modification (GSK137 treatment): 50 μM GSK137; for Displacement Ratio: DModification/Modification(DMSO-d6 treatment); for Displacement: attenuation of covalent modification by GSK137; for DModification: difference DMSO-d6 vs GSK137 treatment
From the text: With additional hits identified from the iterative screen, we sought to obtain further structural and biophysical information to better understand how these reactive fragments bind to BCL6. A total of eight SF hits were resynthesized and purified: the four from the original screen (2f–i) and four from the iterative screen (2p, 2q, 2s, and 2t). […]
8. BCL6 – Further investigations into hits by structural and biophysical studies
8.1. Displacement study with GSK137
The (resynthesized and purified) SF hits (2f–i, 2p, 2q, 2s, and 2t) were plated into a Greiner 384 white low volume plate from a 10 mM source in DMSO, or DMSO-d 6 only as a control. GSK137 (11) was also added from a 10 mM source in DMSO. Purified BCL6 diluted from original stock into a buffer made up of HEPES (pH 7.5, 25 mM) and NaCl (50 mM) in distilled MS-grade water (15 µL per well) was subsequently added across the plate. Final concentrations: 1 µM protein; 50 µM SF; 50 µM GSK137. The plate was sealed, centrifuged (1 min, 1000 rpm), incubated at 20 °C for 24 h, and subsequently analyzed by intact protein LC-MS. This was performed in duplicate and average covalent modification yields were used for analysis.
Table S8. Quantitative output from intact LC-MS analysis of BCL6 BTB/POZ domain reacted with SFs after incubation of DMSO-d 6 or GSK137. Extent of displacement measured as (DModification/Modification(DMSO-d 6 treatment)). […]

CN(C)C(=O)Nc1cccc(CNC(=O)Cc2ccc(S(=O)(=O)F)cc2)c1 [2f]
site of covalent modification (BCL6): Tyr57
Modification (GSK137 treatment) (BCL6 BTB/POZ domain): 3.8%
Modification (DMSO-d6 treatment) (BCL6 BTB/POZ domain): 17.6%
Displacement Ratio (BCL6 BTB/POZ domain): 0.78
Displacement (BCL6 BTB/POZ domain): 78%
DModification (BCL6 BTB/POZ domain): 13.8%

CC(=O)Nc1cccc(CNC(=O)Cc2ccc(S(=O)(=O)F)cc2)c1 [2g]
site of covalent modification (BCL6): Tyr57
Modification (GSK137 treatment) (BCL6 BTB/POZ domain): 4.8%
Modification (DMSO-d6 treatment) (BCL6 BTB/POZ domain): 25.0%
Displacement Ratio (BCL6 BTB/POZ domain): 0.81
Displacement (BCL6 BTB/POZ domain): 81%
DModification (BCL6 BTB/POZ domain): 20.2%

O=C(Cc1ccc(S(=O)(=O)F)cc1)N1CC(Oc2ccc(F)c(F)c2)C1 [2h]
site of covalent modification (BCL6): His115
Modification (GSK137 treatment) (BCL6 BTB/POZ domain): 1.6%
Modification (DMSO-d6 treatment) (BCL6 BTB/POZ domain): 10.3%
Displacement Ratio (BCL6 BTB/POZ domain): 0.84
Displacement (BCL6 BTB/POZ domain): 84%
DModification (BCL6 BTB/POZ domain): 8.7%

NC(=O)c1ccccc1OC1CN(C(=O)Cc2ccc(S(=O)(=O)F)cc2)C1 [2i]
site of covalent modification (BCL6): His115
Modification (GSK137 treatment) (BCL6 BTB/POZ domain): 1.6%
Modification (DMSO-d6 treatment) (BCL6 BTB/POZ domain): 19.7%
Displacement Ratio (BCL6 BTB/POZ domain): 0.92
Displacement (BCL6 BTB/POZ domain): 92%
DModification (BCL6 BTB/POZ domain): 18.1%
